From ChEMBL document CHEMBL3352398, “2-(2-Bromophenyl)-formononetin and 2-heptyl-formononetin are PPARγ partial agonists and reduce lipid accumulation in 3T3-L1 adipocytes” (Bioorg Med Chem, 2014)
Calls of active or inactive are those of the source. The calls are words filed in the database; no cut-off is given here.

Assays:
3T3-L1 [1] = experiment: Reduction of adipogenesis in mouse 3T3L1 cells assessed as decrease in lipid accumulation measured on day 8 by fluorescence-based AdipoRed assay; format: functional, cell-based
3T3-L1 [2] = experiment: Reduction of adipogenesis in mouse 3T3L1 cells assessed as decrease in lipid accumulation measured on day 8 by oil red o assay; format: functional, cell-based
[3] = Cytotoxicity against mouse 3T3L1 cells assessed as effect on lactate dehydrogenase release at 5 to 50 uM measured on day 2; format: cell-based; details: 3t3-l1, 50 µM
[4] = Cytotoxicity against mouse 3T3L1 cells assessed as effect on lactate dehydrogenase release at 5 to 50 uM measured on day 8; format: cell-based; details: 3t3-l1, 50 µM
3T3-L1 [5] = experiment: Effect on adipogenesis in mouse 3T3L1 cells assessed as reduction in Cebpa gene expression at 5 to 50 uM after 8 days by real time quantitative PCR analysis relative to vehicle-treated control; format: functional, cell-based
3T3-L1 [6] = experiment: Effect on adipogenesis in mouse 3T3L1 cells assessed as reduction in Adipoq gene expression at 5 to 50 uM after 8 days by real time quantitative PCR analysis relative to vehicle-treated control; format: functional, cell-based
3T3-L1 [7] = experiment: Effect on adipogenesis in mouse 3T3L1 cells assessed as reduction in Pparg gene expression at 5 to 50 uM after 4 days by real time quantitative PCR analysis relative to vehicle-treated control; format: functional, cell-based
3T3-L1 [8] = experiment: Effect on adipogenesis in mouse 3T3L1 cells assessed as reduction in Cebpa gene expression at 5 to 50 uM after 4 days by real time quantitative PCR analysis relative to vehicle-treated control; format: functional, cell-based
3T3-L1 [9] = experiment: Effect on adipogenesis in mouse 3T3L1 cells assessed as reduction in Fabp4 gene expression at 5 to 50 uM after 4 days by real time quantitative PCR analysis relative to vehicle-treated control; format: functional, cell-based
3T3-L1 [10] = experiment: Effect on adipogenesis in mouse 3T3L1 cells assessed as reduction in Adipoq gene expression at 5 to 50 uM after 4 days by real time quantitative PCR analysis relative to vehicle-treated control; format: functional, cell-based
3T3-L1 [11] = experiment: Effect on adipogenesis in mouse 3T3L1 cells in DI media assessed as increase in lipid accumulation at <25 uM after 8 days by fluorescence-based AdipoRed assay; format: functional, cell-based
3T3-L1 [12] = experiment: Effect on adipogenesis in mouse 3T3L1 cells in DI media assessed as increase in fat-laden mature adipocytes at <25 uM after 8 days by oil red o assay; format: functional, cell-based
3T3-L1 [13] = experiment: Effect on adipogenesis in mouse 3T3L1 cells in DI media assessed as reduction in lipid accumulation at 50 uM measured on day 8 by fluorescence-based AdipoRed assay; format: functional, cell-based
3T3-L1 [14] = experiment: Effect on adipogenesis in mouse 3T3L1 cells in DI media assessed as reduction in fat-laden mature adipocytes at 50 uM after 8 days by oil red o assay; format: functional, cell-based
3T3-L1 [15] = experiment: Reduction in triglyceride release in mouse 3T3L1 cells at 50 uM after 48 hrs by fluorescence-based AdipoRed assay; format: functional, cell-based
3T3-L1 [16] = experiment: Reduction in triglyceride release in mouse 3T3L1 cells at 50 uM after 48 hrs by oil red o assay; format: functional, cell-based
3T3-L1 [17] = experiment: Induction of lipolysis in mouse 3T3L1 cells assessed as increase in glycerol level at 50 uM after 48 hrs by UV-Vis spectrophotometry; format: functional
3T3-L1 [18] = experiment: Reduction in lipogenesis in mouse 3T3L1 cells assessed as down regulation of Srebf1 gene exression by real time-qPCR analysis; format: functional, cell-based
3T3-L1 [19] = experiment: Reduction in lipogenesis in mouse 3T3L1 cells assessed as down regulation of Acaca gene exression by real time-qPCR analysis; format: functional, cell-based
3T3-L1 [20] = experiment: Reduction in lipogenesis in mouse 3T3L1 cells assessed as down regulation of Fasn gene exression by real time-qPCR analysis; format: functional, cell-based
3T3-L1 [21] = experiment: Reduction in lipogenesis in mouse 3T3L1 cells assessed as down regulation of Scd1 gene exression by real time-qPCR analysis; format: functional, cell-based
3T3-L1 [22] = experiment: Induction of lipolysis in mouse 3T3L1 cells assessed as up-regulation of Acox1 gene exression by real time-qPCR analysis; format: functional, cell-based
[23] = molecular target: T1, Peroxisome proliferator-activated receptor gamma (Homo sapiens) (UniProt P37231); experiment: Competitive binding to human GST-tagged PPAR-gamma at <=100 uM by TR-FRET assay
T1 sequence (whole entry): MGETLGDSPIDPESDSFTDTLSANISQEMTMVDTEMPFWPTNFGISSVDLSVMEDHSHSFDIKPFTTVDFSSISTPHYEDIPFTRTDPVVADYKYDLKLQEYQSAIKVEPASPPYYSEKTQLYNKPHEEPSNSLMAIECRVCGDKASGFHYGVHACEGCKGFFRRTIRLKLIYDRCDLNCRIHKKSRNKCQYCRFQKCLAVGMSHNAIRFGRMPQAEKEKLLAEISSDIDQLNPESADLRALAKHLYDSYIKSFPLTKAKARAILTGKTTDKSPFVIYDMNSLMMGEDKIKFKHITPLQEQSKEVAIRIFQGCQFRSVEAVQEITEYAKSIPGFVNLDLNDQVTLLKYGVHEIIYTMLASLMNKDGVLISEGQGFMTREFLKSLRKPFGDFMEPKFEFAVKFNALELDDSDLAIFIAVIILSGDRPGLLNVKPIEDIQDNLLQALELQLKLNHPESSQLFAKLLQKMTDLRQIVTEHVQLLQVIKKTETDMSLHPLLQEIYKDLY

[24] = molecular target: T2, Peroxisome proliferator-activated receptor gamma (Homo sapiens, UniProt P37231); experiment: Competitive binding to human GST-tagged PPAR-gamma by TR-FRET assay
T2 sequence (P37231 whole entry): T1 sequence (whole entry)

[25] = molecular target: T3, Peroxisome proliferator-activated receptor gamma (Mus musculus) (UniProt P37238); experiment: Agonist activity at PPAR-gamma in mouse embryo fibroblast at 5 to 50 uM by transactivation assay relative to rosiglitazone
T3 sequence (whole entry): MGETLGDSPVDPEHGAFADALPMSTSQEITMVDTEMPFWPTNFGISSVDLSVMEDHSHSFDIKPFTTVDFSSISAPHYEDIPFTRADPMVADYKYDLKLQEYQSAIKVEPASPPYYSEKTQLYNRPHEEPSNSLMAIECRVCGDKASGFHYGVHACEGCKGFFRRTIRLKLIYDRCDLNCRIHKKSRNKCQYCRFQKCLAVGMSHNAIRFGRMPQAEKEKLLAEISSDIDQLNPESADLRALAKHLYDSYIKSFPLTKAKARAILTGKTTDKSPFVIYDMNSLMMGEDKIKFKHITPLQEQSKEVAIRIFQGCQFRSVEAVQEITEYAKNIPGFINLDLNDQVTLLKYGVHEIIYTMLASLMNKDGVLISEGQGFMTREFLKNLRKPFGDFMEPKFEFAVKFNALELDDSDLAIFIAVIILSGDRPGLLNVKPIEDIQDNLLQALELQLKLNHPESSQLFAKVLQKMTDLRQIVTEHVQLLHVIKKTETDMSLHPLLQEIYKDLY

[26] = molecular target: T3, Peroxisome proliferator-activated receptor gamma (Mus musculus); experiment: Agonist activity at PPAR-gamma in mouse embryo fibroblast by transactivation assay relative to rosiglitazone
3T3-L1 [27] = experiment: Activation of AMPK in mouse 3T3L1 cells assessed as AMPK phosphorylation at 50 uM after 5 to 48 hrs by Western blotting analysis; format: cell-based
[28] = Effect on adipogenesis in mature mouse 3T3L1 cells assessed as upregulation of Sirt1 gene expression; format: functional, cell-based; details: 3T3-L1

Q: With `CCCCCCCc1oc2cc(O)ccc2c(=O)c1-c1ccc(OC)cc1` as the molecule, how does the Activity (3T3-L1 [1]) read?
A: Dose-dependent effect

Q: What about the Activity (3T3-L1 [2]) of the same molecule?
A: Dose-dependent effect

Q: What about the Activity [3] of the same molecule?
A: Non-toxic

Q: What about the Activity [4] of the same molecule?
A: Non-toxic

Q: And the Activity (3T3-L1 [5])?
A: Dose-dependent effect

Q: What about the Activity (3T3-L1 [6]) of the same molecule?
A: Dose-dependent effect

Q: What about the Activity (3T3-L1 [7]) of the same molecule?
A: Dose-dependent effect

Q: And the Activity (3T3-L1 [8])?
A: Dose-dependent effect

Q: What about the Activity (3T3-L1 [9]) of the same molecule?
A: inactive

Q: And the Activity (3T3-L1 [10])?
A: Dose-dependent effect

Q: And the Activity (3T3-L1 [11])?
A: Active

Q: What about the Activity (3T3-L1 [12]) of the same molecule?
A: Active

Q: And the Activity (3T3-L1 [13])?
A: Active

Q: What about the Activity (3T3-L1 [14]) of the same molecule?
A: Active

Q: And the Activity (3T3-L1 [15])?
A: Active

Q: What about the Activity (3T3-L1 [16]) of the same molecule?
A: Active

Q: What about the “fold change (FC)” value (3T3-L1 [17]) of the same molecule?
A: 2

Q: And the Activity (3T3-L1 [18])?
A: Active

Q: What about the Activity (3T3-L1 [19]) of the same molecule?
A: Active

Q: What about the Activity (3T3-L1 [20]) of the same molecule?
A: Active

Q: And the Activity (3T3-L1 [21])?
A: Active

Q: And the Activity (3T3-L1 [22])?
A: Active

Q: What about the Activity [23] of the same molecule?
A: Active

Q: And the IC50 [24]?
A: 5 µM

Q: What about the Activity [25] of the same molecule?
A: 33%

Q: What about the Activity [26] of the same molecule?
A: Dose-dependent effect

Q: What about the Activity (3T3-L1 [27]) of the same molecule?
A: inactive

Q: And the Activity [28]?
A: inactive
